Data: patent US7947739B2, “Tranexamic acid formulations” (Ferring B.V., priority 2004, dated 2011)
Like-named read-outs stand apart in the source and are kept apart here.

Experiments:
[1] = Example 6: single dose followed by multiple doses study, noncompartmental plasma pharmacokinetics, linearity, steady state; format: in vivo, human; details: 1.3 g every 8 hours
Experimental: After an overnight fast, subjects received a single oral dose of tranexamic acid (1.3 g) on Day 1. Blood samples were taken before dosing and up to 36 hours post-dose. Subjects received another single oral dose of tranexamic acid (1.3 g) on the evening of Day 2, and 3 times a day (every 8 hours) starting on the morning of Day 3 until the last dose on the morning of Day 7. Blood samples were taken before the 6th, 9th, 12th and 15th dose (the last dose) for the determination of Cmin, and up to 8 hours after the last dose, for the determination of drug concentration at steady-state. Subjects were housed from at least 10 hours before the 1st dose on Day 1 until after the 8-hour blood draw following the 15th dose (on Day 7). […]
Calculations for plasma tranexamic acid were calculated by noncompartmental methods using the following pharmacokinetic parameters in Tables 15 and 16:
Descriptive statistics including arithmetic means, standard deviations and coefficients of variation were calculated on the individual concentration and pharmacokinetic data. Additionally, geometric means were calculated for the parameters AUC0-t, AUCinf, and Cmax for Day 1 and AUCτ, Cmax and Cmin for Day 7. […]
The ratio of LSM was calculated using the exponentiation of the Day LSM from the analysis on the In-transformed response. The ratio was expressed as a percentage relative to AUCinf (Day 1). […]

[2] = Example 6: compartmental pharmacokinetic analysis; format: in vivo; details: female, human, plasma, oral, 1.3 g; 295 mL/min×0.449; read-out: systemic clearance (CL)
Experimental: Compartmental analysis was performed on tranexamic acid data following single and multiple oral administrations of the modified release (MR) tablet formulation. Multiple compartmental models were constructed and their ability to fit plasma concentrations of tranexamic acid were evaluated using a standard two-stage (STS) approach with ADAPT-II (maximum likelihood analysis). The discrimination process was performed by computing the Akaike Information Criterion Test (AIC), the minimum value of the objective function (OBJ) and by looking at pertinent graphical representations of goodness of fit (e.g. fitted and observed concentrations versus time).
The final analysis was performed using an iterative two-stage approach with the IT2S® software. This software uses a population methodology which allows one to provide robust PK parameter estimates on an individual subject and population basis. All relevant pharmacokinetic parameters were calculated and reported. Concentrations were modeled using a weighting procedure of Wj=1/Sj^2 where the variance σj^2 was calculated for each observation using the equation σj^2=(a+b*Yj)^2 where a and b are the intercept and slope of each variance model. […] The analysis included the quantitative estimation of population PK parameters and interindividual variability of tranexamic acid in plasma.

women with menorrhagia [3] = assay: Example 8: 3-cycle placebo-controlled study, menstrual blood loss (MBL) by alkaline hematin test, also stratified by fibroids; format: in vivo, human; details: 3 cycles
women with menorrhagia [4] = assay: Example 8: 3-cycle study, Menorrhagia Instrument measures (MIQ Q1-Q6), responders, sanitary products, large stains; format: in vivo, human
women with menorrhagia [5] = assay: Example 9: 6-cycle placebo-controlled study, menstrual blood loss (MBL) by alkaline hematin test; format: in vivo, human; details: 3.9 g/day
women with menorrhagia [6] = assay: Example 9: 6-cycle study, Menorrhagia Instrument measures, responders, sanitary products, large stains; format: in vivo, human
[7] = Published pharmacokinetics of tranexamic acid (Pilbrant et al.; Cyklokapron NDA); format: in vivo; details: human, serum, single 1.3 g oral dose, fasting, approx. 65% of 2 g dose published data
Experimental: By comparison, the in vivo absorption profile observed with the European immediate-release formulation is slow and very gradual over 3 hours. Specifically, tranexamic acid serum concentrations are 9, 41, 73, 88 percent (with food), and 22, 63, 85, and 98 percent (fasting) of maximal absorption at 0.5, 1, 1.5 and 2 hours after a 2 g oral dose, respectively.
Tranexamic acid is minimally bound (approximately 3%) to plasma proteins (mainly plasminogen) at “typical” therapeutic plasma concentrations of approximately 5-15 mg/L. The main route of elimination of tranexamic acid is renal glomerular filtration. After oral administration of tranexamic acid (250 or 500 mg) to healthy adults, between 40-70% of the administered dose is excreted unchanged in the urine within 24 hours. After IV administration (1 g) 30% of the dose is excreted unchanged in the urine within one hour, 45-55% within 2-3 hours and 90% within 24 hours.
For this reason, the concentration-time profile of tranexamic acid was estimated by simulating the data over 36 hours, after oral administration of a 1.3 g dose under fasting conditions, using NONMEM. Based on the simulation results, it would be appropriate to collect blood samples until 36 hours in order to characterize the AUC, Cmax, tmax, t½ and F.

[8] = cited from earlier work; for dose excreted unchanged in the urine: IV 1 g
heavy menstrual bleeding = details: cited from earlier work
[9] = 3.9 g/day compared with placebo

## NC[C@H]1CC[C@H](C(=O)O)CC1 [tranexamic acid, trans-4-(aminomethyl)cyclohexanecarboxylic acid]
[1]
  difference between the LSM of predose Day 6 and 7: less than 2%
  largest difference in predose plasma concentrations, LSM of predose Day 5 compared to Day 6 and 7: less than 10%
[2]
  clearance: 123 mL/min
Women with menorrhagia [3]; 1.95 g/day
  mean reduction in MBL from baseline: 46.5 mL
  percent MBL reduction compared with baseline: 26.1%
Women with menorrhagia [3]; 3.9 g/day
  mean reduction in MBL from baseline: 65.3 mL
  percent MBL reduction compared with baseline: 38.6%
Women with menorrhagia [4]; 3-cycle study
  mean LPA score, change from baseline: Significant treatment-related reductions
  mean LSLA score, change from baseline: Significant treatment-related reductions
Women with menorrhagia [4]; [9]
  LWH (MI measure 2): significantly reduced
  subjects' assessments of MBL (MI item 1): significantly reduced
Women with menorrhagia [4]; 3.9 g/day, first menstrual cycle, reduction in MBL and meaningful improvement (MI 6c)
  proportion of responders: 71.0%
Women with menorrhagia [5]; […], 6-cycle study
  mean reduction in MBL from baseline: 69.6 mL
  percent MBL reduction compared with baseline: 40.4%
Women with menorrhagia [5]; p=0.615
  regression slope of response over the six menstrual cycles: −0.90 mL/cycle
Women with menorrhagia [6]; [9]
  LWH (MI measure #2): significantly reduced
  subjects' assessments of MBL (MI measure #1): significantly reduced
Women with menorrhagia [6]; 6-cycle study
  mean LPA score, change from baseline: significant treatment-related reductions
  mean LSLA score, change from baseline: significant treatment-related reductions
[7]; read-out: expected mean AUC0-6
  AUC(0-t): ~40000 ng·h/mL
[7]; read-out: expected mean Cmax
  Cmax: ~10000 ng/mL
[8]; Cyklokapron NDA 19-280
  therapeutic antifibrinolytic range (therapeutic window): 5 to 15 µg/mL
[8]; within 2-3 hours
  dose excreted unchanged in the urine: 45-55%
[8]; within 24 hours
  dose excreted unchanged in the urine: 90%
[8]; within one hour
  dose excreted unchanged in the urine: 30%
[8]; Pilbrant, et al.
  urinary recovery: exceeded 95 % of the dose
[8]; after IV administration
  gamma elimination half-life: approximately 7 hours
[8]; at therapeutic plasma concentrations of approximately 5-15 mg/L
  bound to plasma proteins: approximately 3%
[8]; in vivo
  beta elimination half-life: 2 h
  excreted unchanged drug in the urine: more than 95%
  typical therapeutic plasma concentrations: 5 to 15 mg/L
[8]; oral 250 or 500 mg, healthy adults, within 24 hours
  administered dose excreted unchanged in the urine: 40-70%
Heavy menstrual bleeding; Winkler open label uncontrolled usage study, 849 patients
  women satisfied with the treatment: 80%
Heavy menstrual bleeding; research from European countries
  reduction of heavy menstrual bleeding: 40-50%
